How the values were obtained:
[1] = tested on: BH4 production in human peripheral blood mononuclear cells (PBMCs); test: hPBMC assay, inhibition of BH4 production by LC-MS (anti-CD3/anti-CD28 stimulated); type: cell-based; conditions: PBMC, read-out: hPBMC IC50
Procedure: hPBMC Assay: PBMCs were either purchased or isolated from fresh human blood and used either as a fresh preparation or frozen for later use. The assay system was prepared by pre-treating the assay plates overnight with a solution containing anti-human CD3 antibody. Human PBMCs were suspended in assay medium and plated into the assay plates at a density of 1-4×10^5 cells per well. The desired concentration of the test compound was added to each well. A solution of human anti-CD28 antibody was also added to each well. Plates were incubated for 12-48 hours at 37° C. and 5% CO2. Assay plates were centrifuged for 5-15 minutes at 1-3000 RMP and supernatants were removed. The cells were lysed, sealed and used directly or frozen at −80° C. LC-MS was used to quantify the amount of inhibition of BH4 production.
PBMCs were either purchased or isolated from fresh human blood and used either as a fresh preparation or frozen for later use. The assay system was prepared by pre-treating the assay plates overnight with a solution containing anti-human CD3 antibody. Human PBMCs were suspended in assay medium and plated into the assay plates at a density of 1-4×10^5 cells per well. The desired concentration of the test compound was added to each well. A solution of human anti-CD28 antibody was also added to each well. Plates are incubated for 12-48 hours at 37° C. and 5% CO2. Assay plates were centrifuged for 5-15 minutes at 1-3000 RMP and supernatants were removed. The cells were lysed, sealed and used directly or frozen at −80° C.

[2] = biological target: SNAP-hSPR (sepiapterin reductase, SPR) (Homo sapiens, UniProt P35270); test: biochemical; type: binding; conditions: terbium labelled SNAP-hSPR / SSZ labelled SNAP-EGFP; read-out: hTR-FRET IC50
Sequence of SNAP-hSPR (sepiapterin reductase, SPR) (P35270 whole entry): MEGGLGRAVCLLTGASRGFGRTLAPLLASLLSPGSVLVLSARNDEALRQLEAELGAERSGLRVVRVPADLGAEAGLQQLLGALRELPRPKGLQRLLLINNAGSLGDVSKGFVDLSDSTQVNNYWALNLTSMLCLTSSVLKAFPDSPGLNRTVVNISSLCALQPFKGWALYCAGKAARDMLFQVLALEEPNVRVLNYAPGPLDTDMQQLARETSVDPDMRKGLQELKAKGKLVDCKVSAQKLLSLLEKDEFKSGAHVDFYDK

Row | SMILES | IC50 [1] [nM] | IC50 [2] [nM]
1 | Cc1c(C(=O)N2CCN(c3ncc(-c4ccc(C#N)cc4)s3)CC2)cnn1-c1nn2cccc2c(=O)[nH]1 [Q-1211] | 160 | 10
2 | Cc1c(C(=O)N2CCN(c3ncc(-c4cccc(C#N)c4)o3)CC2)cnn1-c1nn2cccc2c(=O)[nH]1 [Q-1212] | 13 | 1
3 | Cc1c(C(=O)N2CCN(C(=O)C3CC3)CC2)cnn1-c1nn2cccc2c(=O)[nH]1 [Q-1213] | 890 | 3
4 | CCC(=O)N1CCN(C(=O)c2cnn(-c3nn4cccc4c(=O)[nH]3)c2C)CC1 [Q-1214] | 1000 | 6
5 | CC(=O)C1(c2ccccc2)CCN(C(=O)c2cnn(-c3nn4cccc4c(=O)[nH]3)c2C)CC1 [Q-1215] | 17 | 1
6 | Cc1c(C(=O)N2CCN(CC(F)(F)F)c3ccccc32)cnn1-c1nn2cccc2c(=O)[nH]1 [Q-1216] | 46 | 1
7 | Cc1c(C(=O)N2CCC2c2cccc(F)n2)cnn1-c1nn2cccc2c(=O)[nH]1 (centres unmarked) [Q-1217] | 270 | 3
8 | Cc1c(C(=O)N2CCCN(C(C)C(F)(F)F)CC2)cnn1-c1nn2cccc2c(=O)[nH]1 (centres unmarked) [Q-1218] | 130 | 3
9 | Cc1c(C(=O)N2CCC(n3cccc3C#N)CC2)cnn1-c1nn2cccc2c(=O)[nH]1 [Q-1219] | 79 | 1
10 | Cc1c(C(=O)N2CCC3(CCCCC3=O)CC2)cnn1-c1nn2cccc2c(=O)[nH]1 [Q-1220] | 22 | 1
11 | O=C(c1cn(-c2nn3cccc3c(=O)[nH]2)nn1)N1CCN(C2CC2)CC1 [Q-1221] | 37 | 1
12 | O=C(c1cn(-c2nn3cccc3c(=O)[nH]2)nn1)N1CCC(C2CC2)CC1 [Q-1222] | 25 | 1
13 | O=C(c1cn(-c2nn3cccc3c(=O)[nH]2)nn1)N1CCN(CC(F)(F)F)CC1 [Q-1223] | 24 | 3
14 | O=C(c1cn(-c2nn3cccc3c(=O)[nH]2)nn1)N1CC(N2CCC(F)(F)C2)C1 [Q-1224] | 370 | 9
15 | Cc1c(C(=O)N2CC3CC(C2)N3CC(F)(F)F)nnn1-c1nn2cccc2c(=O)[nH]1 [Q-1225] | 29 | 1
16 | O=C(c1cn(-c2nn3cccc3c(=O)[nH]2)nn1)N1CC2CC(C1)N2CC(F)(F)F [Q-1226] | 410 | 7
17 | Cc1c(C(=O)N2CCC(C(=O)CCC(F)(F)F)CC2)cnn1-c1nn2cccc2c(=O)[nH]1 [Q-1227] | 14 | 1
18 | Cc1c(C(=O)N2CCC(C(CO)C(F)(F)F)CC2)cnn1-c1nn2cccc2c(=O)[nH]1 (centres unmarked) [Q-1228] | 17 | 1
19 | Cc1c(C(=O)N2CCC(n3ccnc3C(F)(F)F)CC2)cnn1-c1nn2cccc2c(=O)[nH]1 [Q-1229] | 100 | 2
20 | Cc1c(C(=O)N2CCN(c3ncc(-c4ccccc4F)s3)CC2)cnn1-c1nn2cccc2c(=O)[nH]1 [Q-1230] | 180 | 10
21 | Cc1c(C(=O)N2CCN(c3ncc(-c4ccnc(F)c4)s3)CC2)cnn1-c1nn2cccc2c(=O)[nH]1 [Q-1231] | 62 | 3
22 | Cc1c(C(=O)N2CCC(n3ccnc3Cl)CC2)cnn1-c1nn2cccc2c(=O)[nH]1 [Q-1232] | 56 | 1
23 | Cc1c(C(=O)N2CCC(n3cccc3Cl)CC2)cnn1-c1nn2cccc2c(=O)[nH]1 [Q-1233] | 23 | 1
24 | Cc1c(C(=O)N2CCC(n3cnc(C(F)(F)F)c3)CC2)cnn1-c1nn2cccc2c(=O)[nH]1 [Q-1234] | 27 | 2
25 | Cc1c(C(=O)N2CCN(c3ncc(-c4ccncc4)s3)CC2)cnn1-c1nn2cccc2c(=O)[nH]1 [Q-1235] | 18 | 5

Row | SMILES | IC50 [1] [nM] | IC50 [2] [nM]
26 | Cc1c(C(=O)N2CCN(c3ncc(-c4ccnc(Cl)c4)s3)CC2)cnn1-c1nn2cccc2c(=O)[nH]1 [Q-1236] | 48 | 6
27 | O=C(c1cn(-c2nn3cccc3c(=O)[nH]2)nn1)N1CC2(C1)CC(F)(F)C2 [Q-1237] | 700 | 3
28 | Cc1c(C(=O)N2CCC(n3cccc3C(F)(F)F)CC2)cnn1-c1nn2cccc2c(=O)[nH]1 [Q-1238] | 79 | 2
29 | Cc1nn(-c2nn3cccc3c(=O)[nH]2)cc1C(=O)N1CC2(C1)CC(F)(F)C2 [Q-1239] | 27 | 2
30 | Cc1c(C(=O)N2CCN(C3CC3C(F)(F)F)CC2)cnn1-c1nn2cccc2c(=O)[nH]1 (centres unmarked) [Q-1240] | 35 | 1
31 | Cc1nn(-c2nn3cccc3c(=O)[nH]2)cc1C(=O)N1CCN(C2CCC2)CC1 [Q-1241] | 20 | 2
32 | Cc1nn(-c2nn3cccc3c(=O)[nH]2)cc1C(=O)N1CC(N2CCC(F)(F)C2)C1 [Q-1243] | 51 | 20
33 | O=C(c1cn(-c2nn3cccc3c(=O)[nH]2)nn1)N1CCN(C2CCC2)CC1 [Q-1244] | 36 | 1
34 | O=C(c1cnn(-c2nn3cccc3c(=O)[nH]2)c1)N1CCN2CC(F)(F)C[C@H]2C1 [Q-1246] | 100 | 4
35 | O=C(c1cn(-c2nn3cccc3c(=O)[nH]2)nn1)N1CCN(C2CCC2(F)F)CC1 (centres unmarked) [Q-1247] | 150 | 2
36 | Cc1c(C(=O)N2CCN(C3CC3F)CC2)cnn1-c1nn2cccc2c(=O)[nH]1 (centres unmarked) [Q-1249] | 46 | 2
37 | Cc1c(C(=O)N2CCC(n3ccc(C#N)c3)CC2)cnn1-c1nn2cccc2c(=O)[nH]1 [Q-1250] | 24 | 1
38 | Cc1c(C(=O)N2CC(N3CCC(F)(F)C3)C2)cnn1-c1nc2[nH]ccc2c(=O)[nH]1 [Q-1254] | 870 | 100
39 | Cc1c(C(=O)N2CC(N3CCC(F)(F)C3)C2)cnn1-c1nc2cc[nH]c2c(=O)[nH]1 [Q-1255] | 580 | 100
40 | Cc1c(C(=O)N2CCN(CC(F)(F)F)CC2)cnn1-c1nc2[nH]ccc2c(=O)[nH]1 [Q-1256] | 330 | 30
41 | Cc1c(C(=O)N2CC3(C2)CC(F)(F)C3)cnn1-c1nc2cc[nH]c2c(=O)[nH]1 [Q-1259] | 360 | 100
42 | Cc1c(C(=O)N2CCN(CC(F)(F)F)CC2)cnn1-c1nc2cc[nH]c2c(=O)[nH]1 [Q-1260] | 81 | 30
43 | Cc1c(C(=O)N2CC3(C2)CC(F)(F)C3)cnn1-c1nc2[nH]ccc2c(=O)[nH]1 [Q-1263] | 370 | 100
44 | Cc1c(C(=O)N2CCC2c2cncc(F)c2)cnn1-c1nn2cccc2c(=O)[nH]1 (centres unmarked) [Q-1269] | 53 | 5
45 | Cc1c(C(=O)N2CCC(n3cccc3S(=O)(=O)C(F)(F)F)CC2)cnn1-c1nn2cccc2c(=O)[nH]1 [Q-1288] | 600 | 8
46 | Cc1c(C(=O)N2CCC(n3ccc(S(=O)(=O)C(F)(F)F)c3)CC2)cnn1-c1nn2cccc2c(=O)[nH]1 [Q-1289] | 70 | 2
47 | Cc1c(C(=O)N2CC3CC(C2)N3CC(F)(F)F)cnn1-c1nc2cc[nH]c2c(=O)[nH]1 [Q-1291] | 2400 | 200
48 | Cc1c(C(=O)N2CCC2c2ccc(F)cn2)cnn1-c1nn2cccc2c(=O)[nH]1 (centres unmarked) [Q-1301] | 820 | 10
49 | Cc1c(C(=O)N2CC3CC(C2)N3CC(F)(F)F)cnn1-c1nc2[nH]ccc2c(=O)[nH]1 [Q-1305] | 1200 | 100

Source: patent US9963462B2 (priority 2015, dated 2018)
